# Data published in patent publication US20200024662A1, “METHODS FOR TREATING OPIOID ADDICTION” (ASSUREX HEALTH, INC., priority 2016, published 2020).
# “Also recorded” adds a separate entry of the source.
# Tests used:
# [1] = test system: patients treated with Methadone in the START trial; experiment: Completion of 24-week Methadone treatment, START samples of Example 2; assay type: in vivo, human; settings: 24-week treatment
# Method: (§1) Samples from patients treated with Methadone in the START trial described in Example 1 above were used (N=352). […] Each model was tested as described below against Sample 1, Sample 2 and/or the Full Sample.
# [2] = test system: patients treated with Methadone in the START trial; experiment: PD Model 2 binning vs Methadone completion; assay type: in vivo, human
# Method: (§2) For the model analyses, models were developed that sort patients into one of three categories, Green (‘G’) Yellow (‘Y’) or Red (‘R’). Patients determined to be high risk for non-completion by the model are placed into the Red Bin. Patients at intermediate risk of non-completion are placed in the Yellow Bin, and for this study, Yellow Bin patients are treated the same as patients found to be at Low Risk of non-completion, or those who are placed in the Green Bin. Thus, the Green and Yellow bins are combined for analysis.
# PD Model 2: The completion percentage was calculated for each genotype. For each gene and genotype completion percentage, the means and standard deviations were calculated. For each genotype that was one standard deviation away from the mean, towards higher completion, a score of 1 was given. For each genotype that was one standard deviation away from the mean, towards lower completion, a score of −1 was given. For genotypes that were not one standard deviation away, the raw percent difference from the mean was observed as the score. Each score was then normalized across each gene using a scale from 0.2 to 1. Each value was normalized across all genes by converting the percentages on a plus/minus scale of 0, 0.2, 0.5, and 1 according to Table 17. Values that were greater than or equal to 1 SD away were automatically scored as a 1 or −1. The conversion of genotypes to scores was as shown in Tabl 18. The patient's PD risk was calculated by summing the total genotype risk score. Bins were assigned over the range of scores that maximized completers in Green and Yellow bins and non-completers in the Red bin.
# as §1
# (§3) Pearson's product moment, Chi-square with Yates correction were calculated. Diagnostic tests, odds ratios, Pearson's product moment, Chi-square with Yates correction were calculated using MEDCALC and R version 3.3.1.
# [3] = test system: patients treated with Methadone in the START trial; experiment: PK/PD Model 1 binning vs Methadone completion; assay type: in vivo, human
# Method: as §2
# Three separate PK/PD Models were generated by combining the PK model with each of the three PD models separately as follows. For each PKPD model, the corresponding PD risk score was added to the raw PK score (bin). A total PD risk score that was negative, represents a reduction of the baseline PK score, while a total PD risk score that was positive represented an increase in the baseline PK score.
# as §1, §3
# For PK/PD Model 1, final score was the sum of the PD 1 score and the PK score, where PK green=1, PK Yellow=2 and PK red=3. Bins were assigned according to Table 61.
# START trial patients [4] = experiment: Combinatorial gene modeling: composite genetic risk score (biology-based and data-based) vs non-completion
# START trial patients [5] = experiment: Single-gene logistic regression of non-completion of 24-week opioid agonist replacement therapy (START trial)
# [6] = PD Model 2, Full Sample, Green bin, Risk Score −4.2 to −0.2
# [7] = PD Model 2, Full Sample, Red bin, Risk Score 1.3+
# [8] = PD Model 2, Full Sample, Yellow bin, Risk Score 0.1 to 1
# [9] = PD Model 2, Sample 1, Green bin, Risk Score −3.3 to −0.2
# [10] = PD Model 2, Sample 1, Red bin, Risk Score 1.3 to 3.7
# [11] = PD Model 2, Sample 1, Yellow bin, Risk Score 0.2 to 1
# [12] = PD Model 2, Sample 2, Green bin, Risk Score −3.2 to −1
# [13] = PD Model 2, Sample 2, Red bin, Risk Score 0.5 to 2.7
# [14] = PD Model 2, Sample 2, Yellow bin, Risk Score −0.9 to 0.3
# [15] = PK/PD Model 1, Full Sample, Green bin
# [16] = PK/PD Model 1, Full Sample, Red bin
# [17] = PK/PD Model 1, Full Sample, Yellow bin
# [18] = PK/PD Model 1, Sample 1, Green bin
# [19] = PK/PD Model 1, Sample 1, Red bin
# [20] = PK/PD Model 1, Sample 1, Yellow bin
# [21] = PK/PD Model 1, Sample 2, Green bin
# [22] = PK/PD Model 1, Sample 2, Red bin
# [23] = PK/PD Model 1, Sample 2, Yellow bin
# [24] = composite genetic risk score vs non-completion, adjusted for Dose-bin, 25 gene combinations
# [25] = Table 4.3, 24-week treatment, logistic regression with dose category
compound,measurement,setting,value
"CCC(=O)C(CC(C)N(C)C)(c1ccccc1)c1ccccc1 (centres unmarked) [Methadone, methadone]",Completers,[1]; Sample 1 (N=176),156
same,non-completers,[1]; Sample 1 (N=176),20
same,Completers,[1]; Sample 2 (N=176),159
same,non-completers,[1]; Sample 2 (N=176),17
same,Completers,[2]; [6],101
same,Non Completers,[2]; [6],7
same,Completers,[2]; [7],86
same,Non Completers,[2]; [7],20
same,Completers,[2]; [8],120
same,Non Completers,[2]; [8],18
same,Completers,[2]; [9],58
same,Non Completers,[2]; [9],3
same,Completers,[2]; [10],43
same,Non Completers,[2]; [10],12
same,Completers,[2]; [11],55
same,Non Completers,[2]; [11],5
same,Completers,[2]; [12],70
same,Non Completers,[2]; [12],2
same,Completers,[2]; [13],32
same,Non Completers,[2]; [13],9
same,Completers,[2]; [14],57
same,Non Completers,[2]; [14],6
same,Completers,[3]; [15],262
same,Non Completers,[3]; [15],23
same,Completers,[3]; [16],2
same,Non Completers,[3]; [16],6
same,Completers,[3]; [17],43
same,Non Completers,[3]; [17],16
same,Completers,[3]; [18],137
same,Non Completers,[3]; [18],11
same,Completers,[3]; [19],2
same,Non Completers,[3]; [19],3
same,Completers,[3]; [20],17
same,Non Completers,[3]; [20],6
same,Completers,[3]; [21],134
same,Non Completers,[3]; [21],10
same,Completers,[3]; [22],0
same,Non Completers,[3]; [22],2
same,Completers,[3]; [23],25
same,Non Completers,[3]; [23],5
same,Odds Ratio for Non-Completers,"START trial patients [4]; Biology-Based, ORG4-CYP2B6-CYP2C19",1.38
same,Odds Ratio for Non-Completers,"START trial patients [4]; Biology-Based, ORG4-CYP2C19",1.53
same,Odds Ratio for Non-Completers,"START trial patients [4]; Biology-Based, ORG4-CYP2C19-1A2",1.53
same,Odds Ratio for Non-Completers,"START trial patients [4]; Biology-Based, ORG4-CYP2C19-2C9",1.44
same,Odds Ratio for Non-Completers,"START trial patients [4]; Biology-Based, ORG4-CYP2C19-2D6",1.34
same,Odds Ratio for Non-Completers,"START trial patients [4]; Data-Based, ORG4-CYP2B6-CYP2C19",1.9
same,Odds Ratio for Non-Completers,"START trial patients [4]; Data-Based, ORG4-CYP2C19",1.76
same,Odds Ratio for Non-Completers,"START trial patients [4]; Data-Based, ORG4-CYP2C19-1A2",1.46
same,Odds Ratio for Non-Completers,"START trial patients [4]; Data-Based, ORG4-CYP2C19-2C9",1.77
same,Odds Ratio for Non-Completers,"START trial patients [4]; Data-Based, ORG4-CYP2C19-2D6",1.72
same,"composite endpoints significant, biology-based model",START trial patients [4]; [24],7 of 25
same,"composite endpoints significant, data-based model",START trial patients [4]; [24],23 of 25
same,"OR (95% CI) of non-completion, COMT VAL/MET vs MET/MET",START trial patients [5]; [25],2.76 (0.99-7.68)
same,"OR (95% CI) of non-completion, COMT VAL/VAL vs MET/MET",START trial patients [5]; [25],3.16 (1.07-9.31)
same,"OR (95% CI) of non-completion, COMT VAL/VAL vs VAL/MET",START trial patients [5]; [25],1.14 (0.56-2.34)
same,"OR (95% CI) of non-completion, CYP3A4 EM vs IM + PM",START trial patients [5]; [25],1.66 (0.48-5.77)
same,"OR (95% CI) of non-completion, HTR2A Intermediate vs Normal",START trial patients [5]; [25],0.58 (0.25-1.36)
same,"OR (95% CI) of non-completion, HTR2A Intermediate vs Reduced",START trial patients [5]; [25],0.73 (0.35-1.52)
same,"OR (95% CI) of non-completion, HTR2A Normal vs Reduced",START trial patients [5]; [25],1.26 (0.51-3.09)
same,"OR (95% CI) of non-completion, SLC6A4 L/L vs S/S",START trial patients [5]; [25],0.54 (0.23-1.23)
same,"OR (95% CI) of non-completion, SLC6A4 L/S vs L/L",START trial patients [5]; [25],0.77 (0.36-1.65)
same,"OR (95% CI) of non-completion, SLC6A4 L/S vs S/S",START trial patients [5]; [25],0.41 (0.19-0.91)
same,"times more likely not to complete the 24-week treatment, SLC6A4 reduced phenotype compared to intermediate phenotype",START trial patients [5]; […],2.41 times
same,effect of dose level (Dose-bin-category covariate) on non-completion,START trial patients [5]; significance at p-value ≤0.05 in the single-gene logistic regression models,significant for all eleven genes; also recorded: played an important role
same,"times more likely not to complete the 24-week treatment, COMT high phenotype compared to reduced phenotype",START trial patients [5]; text statement of odds ratio,3.16 times
